Test results published in paper PMC12172326 (Journal of Biomedical Science, 2025).

Columns and labels:
[1] = tested on: mice subjected to controlled cortical impact (CCI) TBI; test: CCI TBI in mice: behavioral assessment; type: in vivo, mouse; conditions: for CCI-induced asymmetry, elevated body swing test: 1 week post injury; for home cage activity during the initial 11 h following CCI: dark phase; for CCI-induced reduction in brake time (gait): left hind limb, 1 week after injury
Procedure: (§1) For behavioral analyses, mice were assessed for spatial memory, gait function, motor coordination/balance function and home cage activity. The animals were subsequently evaluated for cellular changes using histology and immunohistochemistry after euthanasia.
(§2) In order to develop a controlled cortical impact (CCI) model of TBI, mice were anesthetized with 2.5% 2,2,2-tribromoethanol (Avertin, 400 mg/kg, I.P.) (Sigma, St. Louis, MO, USA) and placed in a stereotaxic frame (Kopf Instruments, Tujunga, CA, USA). A 4 mm craniotomy was performed under sterile procedures; the craniotomy point was selected midway between the lambda and bregma sutures, and laterally midway between the central suture and the temporalis muscle. The skull fragment was then carefully removed without disruption of the underlying dura on the right side of the head. Before injury, the tip of the impactor was angled and kept perpendicular to the exposed cortical surface. The mouse CCI instrument consisted of an electromagnetic impactor, Impact One (Leica Biosystems Inc., Buffalo Grove, IL, USA) that allows independent manipulation of injury severity by adjusting the contact duration and velocity of a metal impactor and the depth of cortical deformation. In these experiments, the contact velocity was set at 5.0 m/s, the dwell time was set at 0.2 s, and the deformation depth was set at 1.5 mm to produce a moderate TBI. The injury site was cleaned and dried by use of sterile cotton tipped applicators prior to suturing the wound. During surgery and recovery, the body temperature of all animals was maintained at 36–37 °C by using a heating pad.
Behavioral tests were conducted 1 week and 2 weeks post the CCI/sham procedure, to evaluate motor function and coordination differences between groups, and to compare with data performed 1 week prior to either procedure. All behavioral tests were conducted during the animals’ day light cycle; home cages were moved to behavioral rooms at least 1 h before testing.
Home cage activity monitoring was automatically and non-intrusively monitored using the digital individually ventilated cage system (DVC™; Tecniplast). Mice were individually housed, and their activity was tracked for 3 days before CCI/sham and 7 days after CCI/sham procedures.
Beam Walking Test (BWT) was used to evaluate CCI-induced impairments in motor coordination. Mice have an intrinsic preference for a darkened enclosed environment, as compared to an open bright field. Each mouse was placed in a darkened one-side-open cube box for 2 min for habituation and then was brought to the other (light) end of the beam, to start the trial. Two beams were used in this study with the following dimensions: 0.6 cm or 1.2 cm (width) × 91 cm (length). The time taken for each mouse to traverse the beam to reach the dark cube box and the ‘immobility time’ spent between the moment a mouse was initially placed on the beam and it started walking were recorded. Two trials were recorded for each animal with the 1.2 cm-width beam, and an additional two trials with the 0.6 cm-width were subsequently recorded. The mean times to traverse the beam and the immobility times were calculated, and a plot was generated to evaluate treatment effects; these times were then used for statistical analysis.
Gait analysis was employed to assess gait parameters following a specific protocol provided by the DigiGait manufacturer (Mouse Specifics, Inc., Framingham, MA, USA). The study tracked gait function at three time points: baseline, 1-week prior to CCI (PRE), and 1- and 2-weeks post-CCI. At the beginning of the trial, mice were brought to the test chamber for habituation to the new environment for 2 min, and then were given a 1-min run at 5 cm/sec before a 1-min break. […] Videos were assessed using DigiGait software to evaluate parameters that included stride duration, length, paw angle, and stance for all four limbs, following Mouse Specifics, Inc.'s procedures. […]

[2] = cited from earlier work
[3] = 100 μg/ml; data derive from ref 64; cited from earlier work
[4] = tested on: mice subjected to controlled cortical impact (CCI) TBI; test: CCI TBI in mice: histology and GFAP/IBA1 immunohistochemistry; type: in vivo, mouse
Procedure: as §1, §2
Two weeks following injury, mice were deeply anesthetized using isoflurane and underwent transcardial perfusion with 30 ml of phosphate-buffered saline (PBS) followed by 120 ml of 4% paraformaldehyde (PFA) in PBS. The brains were collected and placed into a 4% PFA solution for post-fixation overnight, and then transferred to 25% followed by 30% sucrose solution in PBS for dehydration. Sections of a region extending from the striatum to the hippocampus were cut coronally into 25 μm thickness using a cryostat (Leica Biosystems Inc., Buffalo Grove, IL, USA) and stored in a cryoprotectant solution. These sections were subjected to Giemsa (nuclear/chromosomal) staining and immunohistochemical analysis.
Brain sections obtained 2 weeks post-TBI, with a thickness of 25 µm, were placed onto slides. These sections were stained using a 10% Giemsa KH2PO4 buffered solution (pH 4.5) for 30 min at 40 °C. Following a rinse, the slides underwent de-staining, differentiation, dehydration in absolute ethanol, cleared in xylene, and then were cover-slipped. Subsequently, the slides were scanned using an All-in-One Fluorescence Microscope BZ-X710 (Keyence Corporation of America, Itasca, IL, USA). Brain image areas were quantified using ImageJ 1.52q software (National Institutes of Health, Bethesda, MD, USA). The contusion volume size and lateral ventricle size were determined as described previously, using the calculation formulas as follows:
Contusion volume size: Σ (area of contralateral hemisphere–area of ipsilateral hemisphere)/Σ area of contralateral hemisphere × 100.
Lateral ventricle size: Σ area of ipsilateral lateral ventricle/Σ area of contralateral lateral ventricle.
Nine brain sections from each mouse were quantified, spanning regions from bregma 0.86 mm to − 1.46 mm.
Immunohistochemistry for GFAP and IBA1 was performed as described previously. […]

[5] = human; cited from earlier work
[6] = high dose, initial 5 min on Day 2, 1 week after CCI, vs CCI + Vehicle
[7] = high dose, vs CCI + vehicle, p < 0.05
[8] = low dose, p < 0.05 vs CCI + Vehicle
[9] = 2 weeks after CCI, 13.23 and 26.47 mg/kg I.P. at 30 min and 24 h
[10] = both low and high doses, p < 0.0001

With `Nc1cccc2c1C(=S)N(C1CCC(=O)NC1=O)C2=O` (stereo not shown) [3-MP, 3-monothiopomalidomide] the “CCI-induced elevation of swing duration CV (gait)” value ([1]; both low and high doses, p < 0.05 vs CCI + Vehicle) was “significantly reduced”, the “CCI-induced asymmetry, elevated body swing test” value ([1]; high dose) was “trend towards normalization” and the “home cage activity during the initial 11 h following CCI” value ([1]; high dose, vs CCI + vehicle) was “did not reach statistical significance”. For the same molecule, the “discrimination index (DI) of distance traveled” value ([1]; high dose, initial 5 min, vs CCI + Vehicle) was “substantially higher”, the “ambulatory time in the center zone, novelty-dependent exploration test” value [1, 6] was “significantly lower” and the “distance traveled, novelty-dependent exploration test” value [1, 6] was “significantly lower”. For the same molecule, the “CCI-induced reduction in brake time (gait)” value ([1]; high dose, p < 0.05) was “significantly alleviated”, the “discrimination index (DI) of duration in the center” value [1, 7] was “significantly higher” and the “home cage activity on the day after CCI” value [1, 7] was “significantly higher”. For the same molecule, the “lower home cage activity 24 h later (night + 1)” value ([1]; low dose and high dose, vs CCI + vehicle, p < 0.05) was “significantly mitigated”, the “CCI-induced asymmetry, elevated body swing test” value [1, 8] was “notably reduced” and the “home cage activity during the initial 11 h following CCI” value ([1]; low dose, vs CCI + vehicle, p < 0.05) was “notably higher”. For the same molecule, the “CCI-induced reduction in brake time (gait)” value ([1]; low dose) was “trend towards improvement”, the “paw angle impairment (gait)” value [1, 8] was “mitigated” and the oral bioavailability [2] was 38.5%. For the same molecule, the “ex vivo stability in human plasma” value [3] was “stable”, the “contusion volume (loss of cortical tissue)” value [4, 9] was “unchanged” and the lateral ventricle enlargement [4, 9] was “unchanged”. For the same molecule, the “TBI-induced morphological alterations in astrocytes (surface area, cell volume, branch area, branch length, number of branches)” value ([4]; both low and high doses, ipsilateral (p < 0.0001) and contralateral cortex) was “significantly ameliorated”, the “CCI-induced microglial morphological alterations (ramification index, branches, branch length, spanned area, junctions, endpoints)” value [4, 10] was “partially but significantly returned” and the “astrocyte complexity (total Sholl intersections)” value [4, 10] was “significantly mitigated”. For the same molecule, the “stability in ex vivo plasma and liver homogenate samples” value [5] was “relatively stable”.
